In patent US20070099250A1, “Methods for treating proliferative diseases and for monitoring the effectiveness of treatment of proliferative diseases” (priority 2003, published 2007):

Legend:
[1] = system: Heat-shock 110 kD protein; experiment: Inverse labeling-MS phosphopeptide analysis of HCT116 cell lysate treated with BPMI; format: cell-based, human; conditions: HCT116 cells, 20 μM BPMI, 1.5 hours; phosphopeptide IEpSPKLER
Procedure: (§1) Human colorectal cell line HCT116 cells are grown in 6-well plates. Prior to harvesting, the cells are treated with 20 μM of the Raf inhibitor BPMI and DMSO control for 1.5 hours, respectively. Cells are then rinsed with PBS, and lysed for 5 minutes at 4° C. in Doriano lysis buffer with 100 μg/mL Perfabloc/2 μg/mL aprotinin/2 μg/mL leupeptin/1 mM NaVO4/10 mM NaF. The supernatant of the lysates are collected after centrifugation at 3,000 rpm for 5 minutes. The protein concentration is determined using Bio-Rad reagent, and the lysates are frozen at −80° C. prior to fkrther processing and analysis.
(§2) One μL of RNase A (20 mg/mL, Sigma, St Louis, Mo.) and 1 μL of RNase T1 (10 units/mL, Invitrogen, Carlsbad, Calif.) are added to each 1 mL of lysates (total 3 mg of HCT116-DMSO control and 3 mg of HCT116-BPMI, respectively), and incubated at 37° C. for half an hour to degrade RNAs. Proteins are denatured using 6 M guanidine HCl, followed by reduction with 20 mM 1,4-dithio-DL-threitol (DTT) at 58° C. for 40 minutes and alkylation with 40 mM iodoacetamide at room temperature for 30 minutes in the dark. Each protein solution is transferred to a Slide-A-Lyzer (10,000 MW cutoff, Pierce, Rockford, IL) dialysis cassette and dialyzed against 2 to 0 M urea/50 mM ammonium bicarbonate to remove small molecule impurities and buffer exchange to 50 mM ammonium bicarbonate. Proteolysis is carried out using modified, sequencing grade trypsin (Promega, Madison, Wiss.) at a 1:200 trypsin-to-protein ratio (wt:wt) in 50 mM ammonium bicarbonate at 37° C. overnight.
(§3) The peptide digests are filtered through Centricon Filters (10,000 MW cutoff, Millipore, Bedford, Mass.) to remove large molecule impurities including detergents. Flow-through (peptides) is collected. Solvent and ammonium bicarbonate are subsequently removed by SpeedVac drying.
(§4) d0- or d3-methanolic HCl (2M) (methyl esterification reagent) is prepared by adding 160 μL of acetyl chloride to 1 niL of anhydrous d0-methyl alcohol or d3-methyl d-alcohol drop wise while stirring. After 10 minutes, 1 mL of the methyl esterification reagent is added to 1.5 mg of lyophilized peptide mixture. The reaction is performed in parallel to two identical aliquots for every sample, one using d0-reagent and one using d3-reagent, respectively. The reaction is allowed to proceed at room temperature for 30 minutes. The excess reagents are removed by SpeedVac drying. Subsequently the peptide mixtures are reconstituted with water. The inverse labeling is achieved by mixing d0-control with d3-treated (BPMI) and d3-control with d0-treated.
(§5) Enrichment of phosphopeptides is performed on a 2.1×30 mm IMAC column (POROS 20 MC, Applied Biosystems, Foster City, Calif.). Briefly, the column is washed with water, 100 mM EDTA in 1 M NaCl, followed by water and 1% acetic acid. The column is then activated with 100 mM FeCl3. […] of the inversely labeled methyl esterified peptide mixture (500 μg each form of d0 and d3) is dissolved in 1% acetic acid in 50% acetonitrile/water, and loaded onto iron-activated IMAC column. The unbound peptides are removed by washing with 1% acetic acid in 50% acetonitrile/water. The bound phosphopeptides are eluted with 2% ammonium hydroxide in 50% acetonitrile/water (pH approximately 9 to 10). Acetic acid is added to neutralize the eluent prior to SpeedVac drying. The phosphopeptide mixture is reconstituted with 0.1% formic acid and analyzed using capillary LC/MS, as described below.
(§6) An Ultimate capillary/nano HPLC system (LC Packings, San Francisco, Calif.) with a Swichos micro column-switching module (LC Packings, San Francisco, Calif.) is used for analysis. Separation is carried out on a 0.18×150 mm capillary column, packed with 3 μm C18 stationary phase of 300-Å pore size (PepMap, LC Packings, San Francisco, Calif.), operating at a flow rate of 2 μL/min. Mobile phase A consists of 0.1% (v/v) formic acid in water and mobile phase B of 0.1% (v/v) formic acid in acetonitrile. […]

Oncogene EMS1 [2] = experiment: as above; format: cell-based, human; conditions: HCT116 cells, 20 μM BPMI, 1.5 hours
Procedure: as §1, §2, §3, §4, §5, §6

Oncoprotein 18 [3] = experiment: as above; format: cell-based, human; conditions: for Change (treated/control) in phosphorylation / Change in phosphorylation, % down: HCT116 cells, 20 μM BPMI, 1.5 hours
Procedure: as §1, §2, §3, §4, §5, §6

[4] = system: Epithelial-cadherin (mouse/human); experiment: Inverse labeling-MS analysis of DU145 tumor tissue lysates, mouse tumor xenograft, in vivo BPMI; conditions: 1 hour BPMI treatment, 200 mg/kg p.o., phosphopeptide MRDWVIPPIpSCPENEK
Procedure: (§7) The phosphoproteome mapping method is further tested/applied to an in vivo study of the Raf inhibitor, BPMI (one-hour treatment, 200 mg/kg p.o.), in the analysis of tissue lysates of mouse tumor xenograft.
(§8) The methyl esterification/IMAC procedure is successful in removing the blood contamination from the tissue samples. […] Additional changes in phosphorylation are also detected which includes oncogene EMS1, mouse fetuin and Epithelial-cadherin (see Table 2).

Mouse fetuin = experiment: as above; conditions: 1 hour BPMI treatment, 200 mg/kg p.o., phosphopeptide VoxMHTQCHSTPDpSAEDVR
Procedure: as §7, §8

Oncogene EMS1 [5] = experiment: as above; conditions: 1 hour BPMI treatment, 200 mg/kg p.o.
Procedure: as §7, §8

Oncoprotein 18 [6] = experiment: as above; conditions: for Change (treated/control) in phosphorylation / Change in phosphorylation, % down: DU145 tumor tissue, 1 hour BPMI treatment, 200 mg/kg p.o.
Procedure: as §7, §8

[7] = system: OP18 Ser25 phosphorylation; experiment: Western blot analysis of Raf-inhibitor-treated HCT116 cell lysates, phospho-Ser25 specific OP18 antibody; format: cell-based, human
Procedure: HCT1 16 cells are prepared. as in Example 1 above and treated with a Raf inhibitor (BPMI) for 1.5 hr. Cells are lysed in Incomplete Laemmli buffer (0.1 IM Tris.Cl pH 7.0, 4% SDS, 10% glycerol), and passed through a syringe fitted with 25 gauge needle to break apart genomic DNA. The lysate is boiled for 5 minutes, and loaded onto 10% SDS-PAGE gel. Proteins in the SDS-PAGE gel are then transferred to nitrocellulose membrane. The membrane is blocked with 5% milk for 1 hr, and incubated with the an antibody specific for Ser^25 phosphorylated OP18 for an additional hour. The phosphor-Ser^25 specific OP18 antibody is raised in rabbit using standard techniques and purification known in the art. The amino acid sequence used to generate phosphor-Ser^25 specific OP18 antibody is ELILpSPRSKESVPEFP (SEQ ID NO:_). The blot is washed three times with TBST 15 minutes each, and then incubated with anti-rabbit HRP-conjugated antibody for 1 hr. The blot is washed three times with TBST 15 minutes each, and the antibody bound proteins are labeled using SuperSignal West Dura Extended Duration substrate (Piece Biotechnologies, Rockford, Ill.). The phosphorylated OP18 proteins are detected via exposing the blot through a film (Eastman Kodak, Rochester, N.Y.).
(§9) The treatment of HCT116 cells with BPMI leads to the inhibition of OP18 phosphorylation at Ser^25 residue (data not shown). […] Additional data also provides that BPMI inhibits OP18 Ser^25 phosphorylation with an IC50 of approximately 5 μM. Thus, it appears that both MAPK and OP18 Ser^25 phosphorylation are inhibited at a similar level for a given dose of a raf inhibitor.

[8] = system: MAPK pathway in HCT116 cells; experiment: Inhibition of MAPK pathway in HCT116 cells; format: cell-based, human
Procedure: as §9

[9] = phosphopeptide LPS*pSPVYEDAASFK
[10] = phosphopeptide T*QpTPPVpSPAPQPTEER

CC(C)(C)c1ccc(Nc2ncc(Cc3ccncc3)c3ccccc23)cc1 [BPMI, 1-(4-t-butylanilino)-4-[(pyridin-4-yl)-methyl]-isoguinoline]
Change (treated/control) in phosphorylation [1]: 0.7 | Change in phosphorylation, % down [1]: (30% down) | Change (treated/control) in phosphorylation (Oncogene EMS1 [2]; [9]): 0.8 | Change in phosphorylation, % down (Oncogene EMS1 [2]; [9]): (20% down) | Change (treated/control) in phosphorylation (Oncogene EMS1 [2]; [10]): 0.7 | Change in phosphorylation, % down (Oncogene EMS1 [2]; [10]): (30% down) | Op18 Ser25 phosphorylation upon BPMI treatment (FIG. 1) (Oncoprotein 18 [3]; HCT116 cell lysate, inverse labeling-MS): Down-regulation | Change (treated/control) in phosphorylation (Oncoprotein 18 [3]; phosphopeptide ASGQAFELILpSPR): 0.4 | Change in phosphorylation, % down (Oncoprotein 18 [3]; phosphopeptide ASGQAFELILpSPR): (60% down) | Change (treated/control) in phosphorylation (Oncoprotein 18 [3]; phosphopeptide SKESVPEFPLpSPPK): 0.6 | Change in phosphorylation, % down (Oncoprotein 18 [3]; phosphopeptide SKESVPEFPLpSPPK): (40% down) | Change (treated/control) in phosphorylation [4]: 0.5 | Change in phosphorylation, % down [4]: (50% down) | Change (treated/control) in phosphorylation (Mouse fetuin): 0.6 | Change in phosphorylation, % down (Mouse fetuin): (40% down) | Change (treated/control) in phosphorylation (Oncogene EMS1 [5]; [9]): 0.7 | Change in phosphorylation, % down (Oncogene EMS1 [5]; [9]): (30% down) | Change (treated/control) in phosphorylation (Oncogene EMS1 [5]; [10]): 0.6 | Change in phosphorylation, % down (Oncogene EMS1 [5]; [10]): (40% down) | Change (treated/control) in phosphorylation (Oncoprotein 18 [6]; phosphopeptide ASGQAFELILpSPR): 0.4 | Change in phosphorylation, % down (Oncoprotein 18 [6]; phosphopeptide ASGQAFELILpSPR): (60% down) | Change (treated/control) in phosphorylation (Oncoprotein 18 [6]; phosphopeptide SKESVPEFPLpSPPK): 0.8 | Change in phosphorylation, % down (Oncoprotein 18 [6]; phosphopeptide SKESVPEFPLpSPPK): (20% down) | OP18 Ser25 phosphorylation in vivo (FIG. 2B) (Oncoprotein 18 [6]; tumor tissue DU145, methyl esterification/IMAC): down-regulation | OP18 phosphorylation at Ser25 residue, Western blot ([7]; HCT116 cells, 1.5 hr treatment (data not shown)): inhibition | Phosphorylation seen at Ser25 residue of the OP18 protein, Western blot ([7]; HCT116 cells, at 10 μM): almost no phosphorylation | IC50 ([7]; additional data, read-out: IC50 for inhibition of OP18 Ser25 phosphorylation): ~5 µM | IC50 [8]: 5.3 µM
